Tests used:
[1] = molecular target: T1, BRAF V600E (Homo sapiens, UniProt P15056, V600E); test: Cellular assay of target protein degradation, T-Rex 293 cells stably transfected with HA-BRAF_V600E (HA immunofluorescence, high content imaging); type: cell-based; conditions: T-Rex 293 HA-BRAF V600E; for DC50: half maximal degradation, read-out: BRaf V600E DC50; for Dmax: maximum degradation observed
T1 construct: expressed in transfected cells
Procedure, shortened: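 Read-out is anti-HA immunofluorescence quantified by high-content imaging, giving half-maximal degradation concentration (DC50) and maximum degradation (Dmax, percent of control). Cells expressed the construct under 1 ng/mL doxycycline and received compound (1 μM to 0.1 nM final, 0.1% DMSO) for 24 h at 37 °C.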

[2] = molecular target: T2, BRAF G466V (Homo sapiens, UniProt P15056, G466V); test: Cellular assay of target protein degradation, T-Rex 293 cells stably transfected with HA-BRAF G466V (HA immunofluorescence, high content imaging); type: cell-based; conditions: T-Rex 293 HA-BRAF G466V; for DC50: half maximal degradation, read-out: BRaf G466V DC50; for Dmax: maximum degradation observed
T2 construct: expressed in transfected cells
T2 sequence (P15056 whole entry G466V): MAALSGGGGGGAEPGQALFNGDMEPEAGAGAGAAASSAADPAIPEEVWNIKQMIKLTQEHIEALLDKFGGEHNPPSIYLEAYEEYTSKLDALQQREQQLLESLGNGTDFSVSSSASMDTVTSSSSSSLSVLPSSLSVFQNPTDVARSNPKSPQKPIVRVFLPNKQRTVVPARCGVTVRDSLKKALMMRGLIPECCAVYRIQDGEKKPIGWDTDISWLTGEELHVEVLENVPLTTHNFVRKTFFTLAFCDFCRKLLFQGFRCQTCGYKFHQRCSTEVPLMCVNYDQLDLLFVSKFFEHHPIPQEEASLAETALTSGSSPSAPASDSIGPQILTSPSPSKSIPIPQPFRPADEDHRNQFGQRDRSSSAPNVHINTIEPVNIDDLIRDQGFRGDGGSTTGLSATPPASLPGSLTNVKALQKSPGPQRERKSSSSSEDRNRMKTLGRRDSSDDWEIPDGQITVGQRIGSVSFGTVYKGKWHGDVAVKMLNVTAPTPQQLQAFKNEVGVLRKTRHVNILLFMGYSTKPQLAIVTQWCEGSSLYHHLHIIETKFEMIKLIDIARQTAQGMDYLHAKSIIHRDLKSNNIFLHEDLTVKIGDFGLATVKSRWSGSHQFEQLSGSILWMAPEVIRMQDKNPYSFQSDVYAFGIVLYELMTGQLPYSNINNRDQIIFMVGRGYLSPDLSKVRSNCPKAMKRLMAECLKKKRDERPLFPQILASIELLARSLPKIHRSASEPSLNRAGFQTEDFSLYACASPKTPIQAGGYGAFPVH
Procedure, shortened: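 First, stably transfected T-Rex 293 cells were plated with 0.75 ng/mL doxycycline and grown for 24 hours. Next, compound (final 30 nM to 3 pM, 0.1% DMSO) was added for another 24 hours at 37° C. Finally, cells were fixed, stained for HA and imaged.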

T1 sequence (P15056 whole entry V600E): as the sequence (P15056 whole entry G466V) above, with V466G, V600E counted along it

SMILES	DC50 [1]	Dmax [1]	DC50 [2]	Dmax [2]
Nc1ccc(F)c(C(=O)c2c[nH]c3ncc(-c4ccc(N5CCC(CN6CCC(c7ccc8c(c7)CN([C@H]7CCC(=O)NC7=O)C8=O)CC6)CC5)cc4)cc23)c1F [Compound 254, (3S)-3-(5-{1-[(1-{4-[3-(3-amino-2,6-difluorobenzoyl)-1H-pyrrolo[2,3-b]pyridin-5-yl]phenyl}piperidin-4-yl)methyl]piperidin-4-yl}-1-oxo-2,3-dihydro-1H-isoindol-2-yl) piperidine-2,6-dione]	> 500 nM		< 1 nM	< 35%
O=C1CC[C@@H](N2Cc3cc(N4CCC(CN5CCC6(CCN(c7ccc(-c8cnc9[nH]cc(C(=O)c%10c(F)ccc(NS(=O)(=O)N%11CC[C@@H](F)C%11)c%10F)c9c8)cc7F)CC6)C5)CC4)ccc3C2=O)C(=O)N1 [Compound 259, (3R)-N-{3-[5-(4-{2-[(1-{2-[(3R)-2,6-dioxopiperidin-3-yl]-1-oxo-2,3-dihydro-1H-isoindol-5-yl}piperidin-4-yl)methyl]-2,8-diazaspiro[4.5]decan-8-yl}-3-fluorophenyl)-1H-pyrrolo[2,3-b]pyridine-3-carbonyl]-2,4-difluorophenyl}-3-fluoropyrrolidine-1-sulfonamide]	< 5 nM	35 to 70%	< 1 nM	35 to 70%
C[C@H]1CC[C@H](C)N1S(=O)(=O)Nc1ccc(F)c(C(=O)c2c[nH]c3ncc(-c4ccc(N5CCC(CN6CCC(c7ccc8c(c7)CN([C@H]7CCC(=O)NC7=O)C8=O)CC6)CC5)cc4)cc23)c1F [Compound 262, (2S,5S)-N-{3-[5-(4-{4-[(4-{2-[(3S)-2,6-dioxopiperidin-3-yl]-1-oxo-2,3-dihydro-1H-isoindol-5-yl}piperidin-1-yl)methyl]piperidin-1-yl}phenyl)-1H-pyrrolo [2,3-b]pyridine-3-carbonyl]-2,4-difluorophenyl}-2,5-dimethylpyrrolidine-1-sulfonamide]	5 to 50 nM	< 35%	1 to 10 nM	35 to 70%
C[C@H]1CC[C@H](C)N1S(=O)(=O)Nc1ccc(F)c(C(=O)c2c[nH]c3ncc(-c4ccc(N5CCC(CN6CCC(c7ccc8c(c7)CN(C7CCC(=O)NC7=O)C8=O)CC6)CC5)cc4)cc23)c1F (stereo partly drawn) [Compound 263, (2S,5S)-N-[3-(5-{4-[4-({4-[2-(2,6-dioxopiperidin-3-yl)-1-oxo-2,3-dihydro-1H-isoindol-5-yl]piperidin-1-yl}methyl)piperidin-1-yl]phenyl}-1H-pyrrolo[2,3-b]pyridine-3-carbonyl)-2,4-difluorophenyl]-2,5-dimethylpyrrolidine-1-sulfonamide]	50 to 500 nM	< 35%	1 to 10 nM	35 to 70%
C[C@H]1CCCN1S(=O)(=O)Nc1ccc(F)c(C(=O)c2c[nH]c3ncc(-c4ccc(N5CCC(CN6CCC(c7ccc8c(c7)CN(C7CCC(=O)NC7=O)C8=O)CC6)CC5)cc4)cc23)c1F (stereo partly drawn) [Compound 264, (2S)-N-[3-(5-{4-[4-({4-[2-(2,6-dioxopiperidin-3-yl)-1-oxo-2,3-dihydro-1H-isoindol-5-yl]piperidin-1-yl}methyl)piperidin-1-yl]phenyl}-1H-pyrrolo[2,3-b]pyridine-3-carbonyl)-2,4-difluorophenyl]-2-methylpyrrolidine-1-sulfonamide]	5 to 50 nM	35 to 70%	1 to 10 nM	35 to 70%
CCc1ccc(NS(=O)(=O)N2CC[C@@H](F)C2)c(F)c1C(=O)c1c[nH]c2ncc(-c3ccc(N4CCC(CN5CCC(c6ccc7c(c6)CN([C@H]6CCC(=O)NC6=O)C7=O)CC5)CC4)cc3)cc12 [Compound 265, (3R)-N-{3-[5-(4-{4-[(4-{2-[(3S)-2,6-dioxopiperidin-3-yl]-1-oxo-2,3-dihydro-1H-isoindol-5-yl}piperidin-1-yl)methyl]piperidin-1-yl}phenyl)-1H-pyrrolo [2,3-b]pyridine-3-carbonyl]-4-ethyl-2-fluorophenyl}-3-fluoropyrrolidine-1-sulfonamide]	> 500 nM		> 30 nM	
CCc1ccc(NS(=O)(=O)N2CC[C@@H](F)C2)c(F)c1C(=O)c1c[nH]c2ncc(-c3ccc(N4CCC(CN5CCC(c6ccc7c(c6)CN(C6CCC(=O)NC6=O)C7=O)CC5)CC4)cc3)cc12 (stereo partly drawn) [Compound 266, (3R)-N-[3-(5-{4-[4-({4-[2-(2,6-dioxopiperidin-3-yl)-1-oxo-2,3-dihydro-1H-isoindol-5-yl]piperidin-1-yl}methyl)piperidin-1-yl]phenyl}-1H-pyrrolo[2,3-b]pyridine-3-carbonyl)-4-ethyl-2-fluorophenyl]-3-fluoropyrrolidine-1-sulfonamide]	> 500 nM		> 30 nM	

Next, values leading:

DC50 [1]	Dmax [1]	DC50 [2]	Dmax [2]	SMILES
5 to 50 nM	35 to 70%	1 to 10 nM	35 to 70%	Cc1c(NS(=O)(=O)N2CC[C@@H](F)C2)ccc(F)c1C(=O)c1c[nH]c2ncc(-c3ccc(N4CCC(CN5CCC(c6ccc7c(c6)CN([C@H]6CCC(=O)NC6=O)C7=O)CC5)CC4)cc3)cc12 [Compound 253, (3R)-N-{3-[5-(4-{4-[(4-{2-[(3S)-2,6-dioxopiperidin-3-yl]-1-oxo-2,3-dihydro-1H-isoindol-5-yl}piperidin-1-yl)methyl]piperidin-1-yl}phenyl)-1H-pyrrolo [2,3-b]pyridine-3-carbonyl]-4-fluoro-2-methylphenyl}-3-fluoropyrrolidine-1-sulfonamide]
5 to 50 nM	35 to 70%	< 1 nM	> 70%	N#Cc1cc(-c2cnc3[nH]cc(C(=O)c4c(F)ccc(NS(=O)(=O)N5CC[C@@H](F)C5)c4F)c3c2)ccc1N1CCC(CN2CCC(c3ccc4c(c3)CN(C3CCC(=O)NC3=O)C4=O)CC2)CC1 (stereo partly drawn) [Compound 255, (3R)-N-[3-(5-{3-cyano-4-[4-({4-[2-(2,6-dioxopiperidin-3-yl)-1-oxo-2,3-dihydro-1H-isoindol-5-yl]piperidin-1-yl}methyl)piperidin-1-yl]phenyl}-1H-pyrrolo [2,3-b]pyridine-3-carbonyl)-2,4-difluorophenyl]-3-fluoropyrrolidine-1-sulfonamide]
5 to 50 nM	35 to 70%	< 1 nM	> 70%	COc1cc(-c2cnc3[nH]cc(C(=O)c4c(F)ccc(NS(=O)(=O)N5CC[C@@H](F)C5)c4F)c3c2)ccc1N1CCC(CN2CCC(c3ccc4c(c3)CN([C@H]3CCC(=O)NC3=O)C4=O)CC2)CC1 [Compound 256, (3R)-N-{3-[5-(4-{4-[(4-{2-[(3S)-2,6-dioxopiperidin-3-yl]-1-oxo-2,3-dihydro-1H-isoindol-5-yl}piperidin-1-yl)methyl]piperidin-1-yl}-3-methoxyphenyl)-1H-pyrrolo[2,3-b]pyridine-3-carbonyl]-2,4-difluorophenyl}-3-fluoropyrrolidine-1-sulfonamide]
5 to 50 nM	35 to 70%	1 to 10 nM	> 70%	CNc1cc(-c2cnc3[nH]cc(C(=O)c4c(F)ccc(NS(=O)(=O)N5CC[C@@H](F)C5)c4F)c3c2)ccc1N1CCC(CN2CCC(c3ccc4c(c3)CN(C3CCC(=O)NC3=O)C4=O)CC2)CC1 (stereo partly drawn) [Compound 257, (3R)-N-[3-(5-{4-[4-({4-[2-(2,6-dioxopiperidin-3-yl)-1-oxo-2,3-dihydro-1H-isoindol-5-yl]piperidin-1-yl}methyl)piperidin-1-yl]-3-(methylamino)phenyl}-1H-pyrrolo[2,3-b]pyridine-3-carbonyl)-2,4-difluorophenyl]-3-fluoropyrrolidine-1-sulfonamide]
< 5 nM	35 to 70%	< 1 nM	35 to 70%	O=C1CC[C@H](N2Cc3cc(N4CCC(CN5CCC6(CCN(c7ccc(-c8cnc9[nH]cc(C(=O)c%10c(F)ccc(NS(=O)(=O)N%11CC[C@@H](F)C%11)c%10F)c9c8)cc7F)CC6)C5)CC4)ccc3C2=O)C(=O)N1 [Compound 258, (3R)-N-{3-[5-(4-{2-[(1-{2-[(3S)-2,6-dioxopiperidin-3-yl]-1-oxo-2,3-dihydro-1H-isoindol-5-yl}piperidin-4-yl)methyl]-2,8-diazaspiro[4.5]decan-8-yl}-3-fluorophenyl)-1H-pyrrolo[2,3-b]pyridine-3-carbonyl]-2,4-difluorophenyl}-3-fluoropyrrolidine-1-sulfonamide]
5 to 50 nM	35 to 70%	1 to 10 nM	35 to 70%	N#Cc1cc(-c2cnc3[nH]cc(C(=O)c4c(F)ccc(NS(=O)(=O)N5CC[C@@H](F)C5)c4F)c3c2)cc(C#N)c1N1CCC(CN2CCC(c3ccc4c(c3)CN([C@H]3CCC(=O)NC3=O)C4=O)CC2)CC1 [Compound 260, (3R)-N-{3-[5-(3,5-dicyano-4-{4-[(4-{2-[(3S)-2,6-dioxopiperidin-3-yl]-1-oxo-2,3-dihydro-1H-isoindol-5-yl}piperidin-1-yl)methyl]piperidin-1-yl}phenyl)-1H-pyrrolo [2,3-b]pyridine-3-carbonyl]-2,4-difluorophenyl}-3-fluoropyrrolidine-1-sulfonamide]
5 to 50 nM	35 to 70%	1 to 10 nM	> 70%	N#Cc1cc(-c2cnc3[nH]cc(C(=O)c4c(F)ccc(NS(=O)(=O)N5CC[C@@H](F)C5)c4F)c3c2)cc(C#N)c1N1CCC(CN2CCC(c3ccc4c(c3)CN(C3CCC(=O)NC3=O)C4=O)CC2)CC1 (stereo partly drawn) [Compound 261, (3R)-N-[3-(5-{3,5-dicyano-4-[4-({4-[2-(2,6-dioxopiperidin-3-yl)-1-oxo-2,3-dihydro-1H-isoindol-5-yl]piperidin-1-yl}methyl)piperidin-1-yl]phenyl}-1H-pyrrolo [2,3-b]pyridine-3-carbonyl)-2,4-difluorophenyl]-3-fluoropyrrolidine-1-sulfonamide]
